The text below walks through data of publication PMC10734620, “A blinded in vitro analysis of the intrinsic immunogenicity of hepatotoxic drugs: implications for preclinical risk assessment” (Toxicological Sciences, 2023).

In one data set the test system is T-cell clones. Briefly: Generation and drug-specificity testing of T-cell clones. It counts as cell-based, human. To be noted: for Detection of drug-responsive T-cell clones / T-cell clones responsive to drug (SI ≥ 2): 3 donors; for Detection of drug-responsive T-cell clones: SI ≥ 2; for Dose-dependent proliferation of drug-responsive T-cell clones: titrated concentrations, 48 h, EBV-transformed B-cells; for T-cell clones responsive to drug (SI ≥ 2): training compounds, maximum of 216 clones per donor; for Overall immunogenicity call in T-cell assays: priming assay and/or T-cell clones. The protocol: To establish T-cell lines, PBMC from 3 healthy HLA-typed (Table 2) donors were cultured with individual test compounds (at concentrations not associated with inhibition of mitogen-driven PBMC proliferation; see Figure 2 for individual concentrations) for 14 days. Medium was supplemented with IL-2 (50 U/ml; Peprotech, New Jersey) to maintain drug-specific T-cell expansion. T-cell clones were generated from the T-cell lines by serial dilution and repetitive mitogen stimulation ([Schnyder et al., 2000]). T-cells (0.3–3 cells/well) were cultured with irradiated allogenic PBMC (5 × 10^4/well) and PHA-P (1 µg/ml) in IL-2 containing medium. The medium was supplemented with fresh IL-2 on days 6, 9 and every 2 days thereafter. Growing cultures were expanded further with a second round of mitogen stimulation and tested for drug-specific T-cell proliferation on day 28. Cloned T-cells (5 × 10^4/well) were cultured with irradiated autologous EBV-transformed B-cells (1 × 10^4/well) and drug in duplicate wells for 48 h. Wells containing medium served as a negative control. Proliferation was measured by the addition of [^3H]-thymidine followed by scintillation counting. T-cell clones with SI ≥ 2 were considered drug-responsive and expanded using irradiated allogeneic PBMC for dose-response studies and assessment of CD4/8 phenotyping.
Proliferation was measured by the addition of [^3H]-thymidine as described above.
T-cell clones were washed with FACS buffer and CD phenotype determined using flow cytometry. Cells (10 000) were acquired using a FACSCanto II (BD Biosciences) and data analyzed by FACSDiva software.
Figure 6. Generation of training compound (nitroso sulfamethoxazole, vancomycin, and Bandrowski’s base)-specific T-cell clones. PBMC from 3 healthy donors were cultured with training compounds and supplemented with IL-2 (50 U/ml) for 14 days. T-cell clones were generated from the T-cell lines by serial dilution and repetitive mitogen stimulation. T-cells (0.3–3 cells/well) were stimulated with irradiated allogenic PBMC (5 × 10^4/well) and phytohemagglutinin (1 µg/ml). Well growing cultures were subjected to a second round of expansion then tested for drug-specific T-cell proliferation. Proliferation was measured by the addition of ^3H-thymidine followed by scintillation counting. A–C, Initial specificity test for nitroso sulfamethoxazole, vancomycin, and Bandrowski’s base clones. T-cell clones showing stimulation index, SI ≥ 2 were considered drug-responsive and expanded and used in dose-response studies. SI = Drug-induced T-cell proliferation divided by T-cell proliferation in cell culture media. […] T-cell activation was determined using [^3H]-thymidine incorporation.
Figure 7. […] PBMC from 3 healthy donors were cultured with test compounds and supplemented with IL-2 (50 U/ml) for 14 days. T-cell clones were generated from the T-cell lines by serial dilution and repetitive mitogen stimulation. T-cells (0.3–3 cells/well) were stimulated with irradiated allogenic PBMC (5 × 10^4/well) and phytohemagglutinin (1 µg/ml). Well growing cultures were subjected to a second round of expansion then tested for drug-specific T-cell proliferation. Proliferation was measured by the addition of ^3H-thymidine followed by scintillation counting. […] T-cell activation was determined using [^3H]-thymidine incorporation.

The subject of another data set is PBMC. In words: Inhibition of mitogen-induced (PHA-P) PBMC proliferation. It counts as cell-based, human. To be noted: read-out: IC50, inhibition of mitogen-driven PBMC proliferation. The protocol:
Test compounds were provided by GSK to Liverpool as blinded dry powders with a given volume of dimethyl sulfoxide to prepare stock concentrations of 50 mM. Stock concentrations were aliquoted and stored at −80°C until required for experiments. A fresh aliquot was utilized for every experiment. PBMC from 3 healthy donors were used to determine the maximum tolerated concentration of each test compound. PBMC (0.15 × 10^6) were cultured with graded compound concentrations in U-bottomed 96-well plates for 48 h at 37°C, 5% CO2. Phytohemagglutinin (PHA-P; 10 µg/ml) was added to cells for a further 24 h followed by assessment of proliferation through the addition of [^3H]-thymidine (0.5 µCi/well) for the last 16 h. […] The IC50 value was then calculated using 4-parameter logistic curve-fitting model (GraphPad prism 7.0).
Figure 2. Toxicity profiles of training and test compounds. […] PHA-P (10 µg/ml) was added to cells for a further 24 h followed by assessment of proliferation through the addition of [^3H]-thymidine (0.5 µCi/well) for the last 16 h. […] 4-parameter logistic functions were fit to the data and IC50 values were then reported (GraphPad prism 7.0). […] LPB (Liverpool Pharmacology Biobank) represents the unique identifier for PBMC isolated from each consented healthy blood donor for drug safety research. Percentage proliferation for each compound concentration = Proliferation following drug exposure divided by proliferation after cell culture media exposure multiplied by 100.

The test system of the next data set is naïve T-cells. Briefly: Priming of naïve human T-cells (dendritic cell-T-cell coculture). To be noted: for Proliferation of primed T-cells restimulated with titrated concentrations: 3 drug concentrations (low, medium, high), 48 h; for Number of donors with naïve T-cell priming: 3 study donors; for Proliferation of primed T-cells, drug- vs medium-restimulated wells: 14 days priming, restimulation 48 h at single concentration, 48 wells, [3H]-thymidine. It counts as cell-based. The protocol:
CD14+ monocytes were positively selected using CD14 antibody-conjugated microbeads. This was followed by the depletion of CD25+ cells from the CD14- population and the negative selection of CD45RA+ naïve T-cells. […] Dendritic cells were generated by culturing monocytes with a cocktail of GM-CSF (800 U/ml) and IL-4 (800 U/ml) in culture media for 6 days. Both cytokines were purchased from Peprotech (New Jersey). A maturation cocktail of TNF-α (25 ng/ml) and LPS (1 µg/ml) was added for 16 h before establishing the T-cell priming culture. Dendritic cells (8 × 10^3 per well) were cultured with naïve T-cells (1 × 10^5 per well) and the test compounds in a 96-well U-bottom tissue culture plate for 14 days at 37°C, 5% CO2. Cells were then washed extensively to remove unbound drug and cultures were restimulated with test compound or medium control (48 wells) for 48 h. Subsequent experiments were performed with training compounds to investigate the dose-dependent stimulation of naïve T-cells. In these experiments, T-cells were cultured with 3 concentrations of the test compound and medium (negative control) during the restimulation step. T-cell proliferative responses were determined by addition of [^3H]-thymidine (0.5 µCi/well) for the final 16 h of the culture period. Plates were harvested and counted as described above. […] Student’s t test was performed to determine statistical significance of T-cell proliferation when comparing medium- and drug-treated cultures (*p ≤ .05; **p ≤ .005; ***p < .001).
Figure 3. Naïve T-cell priming with training compounds. CD14+ monocytes were utilized to generate dendritic cells with a cocktail of GM-CSF (800 U/ml) and IL-4 (800 U/ml) in culture media for 6 days. […] A, Nitroso sulfamethoxazole. B, Vancomycin. C, Bandrowski’s base. D, Carbamazepine. E, Piperacillin. The degree of naïve T-cell priming was determined by comparing the counts per minutes (cpm) of drug and media-treated cultures using a beta counter. Student’s t test was performed to determine statistical significance (*p ≤ .05; **p ≤ .005; ***p < .001). Each data point represents T-cells proliferation in individual well of a 96 U-bottomed plate.
Figure 4. Dose-dependent stimulation of primed T-cells with training compound. […] Primed cells were washed extensively and then restimulated with 3 drug concentrations (low, medium, and high) for 48 h followed by determination of T-cell activation by [^3H]-thymidine incorporation. Each data point represents T-cells proliferation in individual well of a 96 U-bottomed plate.
Figure 5. Naïve T-cell priming with test compounds. […] B, Dacarbazine. […] F, Iproniazid. G, Mepivacaine. H, Nevirapine. […] J, Phenoxybenzamine. Primed cells were washed extensively and then restimulated medium or drug for 48 h followed by determination of T-cell activation by [^3H]-thymidine incorporation. Each data point represents T-cells proliferation in individual well of a 96 U-bottomed plate.

Details of data set [1]: method as in Sakatis et al., 2012; Schofield et al., 2021. To be noted: Positive = above the threshold of concern; assays not listed negative; ref Sakatis et al., 2012; Schofield et al., 2021; cited from earlier work.
Where [2] appears, read: Homo sapiens, PBMC, PBMC from 3 healthy donors, compound 48 h, then PHA-P 10 µg/ml 24 h, [3H]-thymidine.
The mark [3] stands for this setting: PBMC from 3 healthy donors, compound 48 h, then PHA-P 10 µg/ml 24 h, [3H]-thymidine.

Read-outs that look alike come from different tables or passages of the source.

As to `NC1=CC(=N\c2ccc(N)cc2)/C(N)=CC/1=N/c1ccc(N)cc1` [Bandrowski's base], in the data set on T-cell clones, the “Detection of drug-responsive T-cell clones” value is “detected from each donor”, the “Dose-dependent proliferation of drug-responsive T-cell clones” value (shortened to “Dose-dependent proliferation”) is “proliferate in a dose-dependent manner” and the “T-cell clones responsive to drug (SI ≥ 2)” value (from here on “T-cell clones responsive”) is reported as 13%. In addition, the IC50 in the data set on PBMC (setting [2]) was determined as 5 µM. Further, in the data set on naïve T-cells, the “Proliferation of primed T-cells restimulated with titrated concentrations” value (shortened to “Proliferation … with titrated concentrations”) is “stimulated to proliferate in the presence of all 3 concentrations”; the “Number of donors with naïve T-cell priming” value (from here on “Number of donors”) was found to be 3; the “Proliferation of primed T-cells, drug- vs medium-restimulated wells” value (from here on “Proliferation … vs medium-restimulated wells”) was “Proliferation of primed T-cells was observed”.
`NC(=O)N1c2ccccc2C=Cc2ccccc21` [Carbamazepine]: the “Detection of drug-responsive T-cell clones” value in the data set with T-cell clones is listed as “not detected”. For the same molecule, the IC50 with PBMC (PBMC from 3 healthy donors, compound 48 h, then PHA-P 10 µg/ml 24 h, [3H]-thymidine, listed as carbamazepine) was no less than 50 µM. Also, the IC50 in the data set with PBMC (setting [3]) came out at 260 µM. In the data set on naïve T-cells, the “Number of donors” value stood at 1 and the “Proliferation … vs medium-restimulated wells” value was “not observed”. Also, in the data set on naïve T-cells (restimulated at 200 µM), the “Proliferation of primed T-cells on restimulation at highest concentration” value is “weakly significant proliferative response”.
As to `CN(C)CCOC(c1ccccc1)c1ccccc1` [Diphenhydramine], in the data set with T-cell clones, the “Overall immunogenicity call in T-cell assays” value is on record as “no false positives”.
For the molecule `CC[C@H]1OC(=O)[C@H](C)[C@@H](O[C@H]2C[C@@](C)(OC)[C@@H](O)[C@H](C)O2)[C@H](C)[C@@H](O[C@@H]2O[C@H](C)C[C@H](N(C)C)[C@H]2O)[C@](C)(O)C[C@@H](C)C(=O)[C@H](C)[C@@H](O)[C@]1(C)O` [Erythromycin], the “Number of drug-responsive T-cell clones” value in the data set on T-cell clones (donor 2) worked out at 3. For the same molecule, the “T-cell clones stimulated to proliferate, donor 2” value in the data set with T-cell clones (donor 2, maximum of 144 clones per donor) was determined as 2%. Moreover, the “Detection of drug-responsive T-cell clones, other donors” value in the data set with T-cell clones (donors other than donor 2) is on record as “not detected”. In the data set on T-cell clones (flow cytometry CD4/CD8), the “CD phenotype of drug-responsive T-cell clones” value is “CD4+”. In addition, in the data set on T-cell clones, the “Overall immunogenicity call in T-cell assays” value is “potentially immunogenic” and the “Dose-dependent proliferation” value is recorded as “dose-dependent proliferative responses”. Besides, in the data set on PBMC (PBMC from 3 healthy donors, compound 48 h, then PHA-P 10 µg/ml 24 h, [3H]-thymidine, listed as erythromycin), the IC50 is no less than 50 µM. In addition, in the data set on PBMC (setting [3]), the IC50 was found to be 160 µM. The “Routine Assays that are Positive (GSK)” value in data set [1] is on record as “Reactive metabolite”.
Consider `Cc1cc(NS(=O)(=O)c2ccc(N=O)cc2)no1` [Nitroso sulfamethoxazole, 4-Nitrososulfamethoxazole], for which, in the data set with T-cell clones, the “Detection of drug-responsive T-cell clones” value is “detected from each donor”, the “Dose-dependent proliferation” value is “proliferate in a dose-dependent manner” and the “T-cell clones responsive” value was found to be 10.0%. The IC50 with PBMC (PBMC from 3 healthy donors, compound 48 h, then PHA-P 10 µg/ml 24 h, [3H]-thymidine, listed as nitroso sulfamethoxazole) was no less than 50 µM. The IC50 in the data set on PBMC (setting [3]) was found to be 250 µM. Further, in the data set with naïve T-cells, the “Proliferation … with titrated concentrations” value is reported as “stimulated to proliferate in the presence of all 3 concentrations”; the “Number of donors” value turned out to be 3; the “Proliferation … vs medium-restimulated wells” value is “Proliferation of primed T-cells was observed”.
Consider `CCN1CCN(C(=O)N[C@@H](C(=O)N[C@@H]2C(=O)N3[C@@H]2SC(C)(C)[C@@H]3C(=O)O)c2ccccc2)C(=O)C1=O` [Piperacillin], for which the “Detection of drug-responsive T-cell clones” value with T-cell clones was “not detected”. Moreover, the IC50 in the data set with PBMC (setting [2]) was 1000 µM. In the data set with naïve T-cells, the “Proliferation … with titrated concentrations” value is on record as “not detected” and the “Proliferation … vs medium-restimulated wells” value is “not observed”.
Take `CN[C@H](CC(C)C)C(=O)N[C@H]1C(=O)N[C@@H](CC(N)=O)C(=O)N[C@H]2C(=O)N[C@H]3C(=O)N[C@H](C(=O)N[C@H](C(=O)O)c4cc(O)cc(O)c4-c4cc3ccc4O)[C@H](O)c3ccc(c(Cl)c3)Oc3cc2cc(c3O[C@@H]2O[C@H](CO)[C@@H](O)[C@H](O)[C@H]2O[C@H]2C[C@](C)(N)[C@H](O)[C@H](C)O2)Oc2ccc(cc2Cl)[C@H]1O` [Vancomycin]: in the data set with T-cell clones, the “Detection of drug-responsive T-cell clones” value was “detected from each donor”, the “Dose-dependent proliferation” value was “proliferate in a dose-dependent manner” and the “T-cell clones responsive” value is recorded as 9.7%. Moreover, in the data set on PBMC (Homo sapiens, PBMC), the IC50 worked out at 2000 µM. In the data set with naïve T-cells, the “Proliferation … with titrated concentrations” value is listed as “stimulated to proliferate in the presence of all 3 concentrations”; the “Number of donors” value was found to be 3; the “Proliferation … vs medium-restimulated wells” value is given as “Proliferation of primed T-cells was observed”.
